The text below walks through data of US9795607B2, “Substituted pyrrolopyrimidine compounds, compositions thereof, and methods of treatment therewith” (Signal Pharmaceutical, LLC, priority 2013, dated 2017).

In the experiment the test system is Triple negative breast cancer cell line CAL51. Briefly: Cell Titer Glo proliferation assay, CAL51. The format is cell-based. The settings on record: Homo sapiens, CAL-51; CAL51 cell proliferation, Cell Titer Glo; read-out: Act. Level. The method, then: Cell Titer Glo Proliferation Assay.
Triple negative breast cancer cell line CAL51 was purchased from DSMZ. […] Allcell lines were maintained in growth media consisting of 90% high glucose Dulbecco's Modified Eagle Medium or RPMI1640 (Invitrogen), 10% fetal bovine serum (Hyclone), and 2 mM L-glutamine (Invitrogen). […] After overnight culture, compound stock (30 mM) was diluted serially in DMSO, further diluted in growth media, and was added to each well as a 10× concentrated solution in a volume of 11 μL, mixed, and allowed to incubate with cells. The compound vehicle (DMSO) was maintained at a final concentration of 0.2% in all wells. After 72 h, 100 μL of Cell Titer Glo solution (Promega) was added to each well of the 96-well plate. The plate was placed on a shaker for 2 minutes. After 10 minutes incubation, the luminescence signal was detected with Envision microplate reader (Perkin Elmer).

As for `CNC(=O)c1ccc(-c2c[nH]c3nc(Nc4ccc(C(=O)NC5CN(C)C5)cc4OC)nc(OC(C)C)c23)cc1` [Example 357, 4-(4-isopropoxy-5-(4-(methylcarbamoyl)phenyl)-7H-pyrrolo[2,3-d]pyrimidin-2-ylamino)-3-methoxy-N-(1-methylazetidin-3-yl)benzamide], the IC50 is below 100 nM.
Take `COc1cc(C(=O)NC2CN(C)C2)ccc1Nc1nc(OC2CCC(C)(O)CC2)c2c(-c3ccc4nc(C)oc4c3)c[nH]c2n1` (centres unmarked) [Example 358, 4-(4-((1s,4s)-4-hydroxy-4-methylcyclohexyloxy)-5-(2-methylbenzo[d]oxazol-6-yl)-7H-pyrrolo[2,3-d]pyrimidin-2-ylamino)-3-methoxy-N-(1-methylazetidin-3-yl)benzamide]: the IC50 lay in the range of 100 to 400 nM.
On to `CNC(=O)c1ccc(-c2c[nH]c3nc(Nc4ccc(C(=O)NC5COC5)cc4OC)nc(OC4COC4)c23)cc1` [Example 359, 3-methoxy-4-(5-(4-(methylcarbamoyl)phenyl)-4-(oxetan-3-yloxy)-7H-pyrrolo[2,3-d]pyrimidin-2-ylamino)-N-(oxetan-3-yl)benzamide], for which the IC50 was 100 to 400 nM.
The value for `COc1cc(C(=O)NC2COC2)ccc1Nc1nc(OC2CCC2)c2c(-c3ccc(-c4ncc[nH]4)cc3)c[nH]c2n1` [Example 360, 4-(5-(4-(1H-imidazol-2-yl)phenyl)-4-cyclobutoxy-7H-pyrrolo[2,3-d]pyrimidin-2-ylamino)-3-methoxy-N-(oxetan-3-yl)benzamide] was below 100 nM; that for `COc1cc(C(=O)NC2CN(C)C2)ccc1Nc1nc(OC2CCCC2)c2c(-c3ccc(-c4ncc[nH]4)cc3)c[nH]c2n1` [Example 361, 4-(5-(4-(1H-imidazol-2-yl)phenyl)-4-(cyclopentyloxy)-7H-pyrrolo[2,3-d]pyrimidin-2-ylamino)-3-methoxy-N-(1-methylazetidin-3-yl)benzamide] was 100 to 400 nM; that for `COc1cc(C(=O)NC2COC2)ccc1Nc1nc(OC(C)C)c2c(-c3ccc4nc(C)oc4c3)c[nH]c2n1` [Example 362, 4-(4-isopropoxy-5-(2-methylbenzo[d]oxazol-6-yl)-7H-pyrrolo[2,3-d]pyrimidin-2-ylamino)-3-methoxy-N-(oxetan-3-yl)benzamide] was 100 to 400 nM.
Then `COc1cc(C(=O)NC2CN(C)C2)ccc1Nc1nc(OC2CC2)c2c(-c3ccc4nc(C)oc4c3)c[nH]c2n1` [Example 363, 4-(4-cyclopropoxy-5-(2-methylbenzo[d]oxazol-6-yl)-7H-pyrrolo[2,3-d]pyrimidin-2-ylamino)-3-methoxy-N-(1-methylazetidin-3-yl)benzamide], with below 100 nM; and `CNC(=O)c1ccc(-c2c[nH]c3nc(Nc4ccc(C(=O)NC5CN(C)C5)cc4OC)nc(OC4CC4)c23)cc1` [Example 364, 4-(4-cyclopropoxy-5-(4-(methylcarbamoyl)phenyl)-7H-pyrrolo[2,3-d]pyrimidin-2-ylamino)-3-methoxy-N-(1-methylazetidin-3-yl)benzamide], with 100 to 400 nM.
For the compound `COCCOc1nc(Nc2ccc(C(=O)NC3COC3)cc2OC)nc2[nH]cc(-c3ccc4nc(C)oc4c3)c12` [Example 365, 3-methoxy-4-(4-(2-methoxyethoxy)-5-(2-methylbenzo[d]oxazol-6-yl)-7H-pyrrolo[2,3-d]pyrimidin-2-ylamino)-N-(oxetan-3-yl)benzamide], the IC50 is below 100 nM.
Then `CNC(=O)c1ccc(-c2c[nH]c3nc(Nc4ccc(C(=O)NC5CN(C)C5)cc4OC)nc(OC4CCOCC4)c23)cc1` [Example 366, 3-methoxy-N-(1-methylazetidin-3-yl)-4-(5-(4-(methylcarbamoyl)phenyl)-4-(tetrahydro-2H-pyran-4-yloxy)-7H-pyrrolo[2,3-d]pyrimidin-2-ylamino)benzamide], with 100 to 400 nM; and `COc1cc(C(=O)NC2CN(C)C2)ccc1Nc1nc(OC2CCOCC2)c2c(-c3ccc4nc(C)oc4c3)c[nH]c2n1` [Example 367, 3-methoxy-N-(1-methylazetidin-3-yl)4-(5-(2-methylbenzo[d]oxazol-6-yl)-4-(tetrahydro-2H-pyran-4-yloxy)-7H-pyrrolo[2,3-d]pyrimidin-2-ylamino)benzamide], with 100 to 400 nM.
Regarding `COc1cc(C(=O)NC2COC2)ccc1Nc1nc(OC2CCOCC2)c2c(-c3ccc4nc(C)oc4c3)c[nH]c2n1` [Example 368, 3-methoxy-4-(5-(2-methylbenzo[d]oxazol-6-yl)-4-(tetrahydro-2H-pyran-4-yloxy)-7H-pyrrolo[2,3-d]pyrimidin-2-ylamino)-N-(oxetan-3-yl)benzamide], the IC50 is below 100 nM.
The value for `COc1cc(C(=O)NC2COC2)ccc1Nc1nc(OC2CC2)c2c(-c3ccc4nc(C)oc4c3)c[nH]c2n1` [Example 369, 4-(4-cyclopropoxy-5-(2-methylbenzo[d]oxazol-6-yl)-7H-pyrrolo[2,3-d]pyrimidin-2-ylamino)-3-methoxy-N-(oxetan-3-yl)benzamide] was 100 to 400 nM; that for `COc1cc(C(=O)NC2COC2)ccc1Nc1nc(OC(C)(C)C)c2c(-c3ccc4nc(C)oc4c3)c[nH]c2n1` [Example 370, 4-(4-tert-butoxy-5-(2-methylbenzo[d]oxazol-6-yl)-7H-pyrrolo[2,3-d]pyrimidin-2-ylamino)-3-methoxy-N-(oxetan-3-yl)benzamide] was below 100 nM.
The value for `Cc1nc2ccc(-c3c[nH]c4nc(Nc5cnn(CC(C)(C)O)c5Cl)nc(OC5CCCC5)c34)cc2o1` [Example 371, 1-(5-chloro-4-(4-(cyclopentyloxy)-5-(2-methylbenzo[d]oxazol-6-yl)-7H-pyrrolo[2,3-d]pyrimidin-2-ylamino)-1H-pyrazol-1-yl)-2-methylpropan-2-ol] was below 100 nM; that for `CNC(=O)c1ccc(-c2c[nH]c3nc(Nc4cnn(CC(C)(C)O)c4Cl)nc(OC4CCC4)c23)cc1` [Example 372, 4-(2-(5-chloro-1-(2-hydroxy-2-methylpropyl)-1H-pyrazol-4-ylamino)-4-cyclobutoxy-7H-pyrrolo[2,3-d]pyrimidin-5-yl)-N-methylbenzamide] was below 100 nM; that for `CNC(=O)c1ccc(-c2c[nH]c3nc(Nc4ccc(C(=O)NC5COC5)cc4OC)nc(OCCOC)c23)cc1` [Example 373, 3-methoxy-4-(4-(2-methoxyethoxy)-5-(4-(methylcarbamoyl)phenyl)-7H-pyrrolo[2,3-d]pyrimidin-2-ylamino)-N-(oxetan-3-yl)benzamide] was 100 to 400 nM.
For `COc1cc(C(=O)NC2CN(C)C2)ccc1Nc1nc(O[C@H]2CCOC2)c2c(-c3ccc4nc(C)oc4c3)c[nH]c2n1` [Example 374, (S)-3-methoxy-N-(1-methylazetidin-3-yl)-4-(5-(2-methylbenzo[d]oxazol-6-yl)-4-(tetrahydrofuran-3-yloxy)-7H-pyrrolo[2,3-d]pyrimidin-2-ylamino)benzamide], the IC50 is below 100 nM.
Then `CNC(=O)c1ccc(-c2c[nH]c3nc(Nc4ccc(C(=O)NC5CN(C)C5)cc4OC)nc(O[C@H]4CCOC4)c23)cc1` [Example 375, (S)-3-methoxy-N-(1-methylazetidin-3-yl)-4-(5-(4-(methylcarbamoyl)phenyl)-4-(tetrahydrofuran-3-yloxy)-7H-pyrrolo[2,3-d]pyrimidin-2-ylamino)benzamide], with 400 to 1000 nM; and `CNC(=O)c1ccc(-c2c[nH]c3nc(Nc4ccc(C(=O)NC5COC5)cc4OC)nc(O[C@H]4CCOC4)c23)cc1` [Example 376, (S)-3-methoxy-4-(5-(4-(methylcarbamoyl)phenyl)-4-(tetrahydrofuran-3-yloxy)-7H-pyrrolo[2,3-d]pyrimidin-2-ylamino)-N-(oxetan-3-yl)benzamide], with below 100 nM.
